In patent US9204653B2, “5-fluoro pyrimidine derivatives” (DOW AGROSCIENCES LLC, priority 2008, dated 2015):
Like-named read-outs stand apart in the source and are kept apart here.

Test system: Mycosphaerella graminicola; Anamorph: Septoria tritici; Bayer Code SEPTTR
Test: Leaf blotch of wheat, foliar fungicide treatment, one day protectant (1DP) or three day curative (3DC)
Type: in vivo, Septoria tritici on wheat plants (variety Yuma)
Details: Zymoseptoria tritici, rating of percent disease control
[1] = 24 h, one day protectant, read-out: SETTTR 1DP 25 ppm
[2] = 24 h, one day protectant, read-out: SEPTTR 1DP 100 ppm
[3] = 72 h, three day curative, read-out: SEPTTR 3DC 25 ppm
[4] = 72 h, three day curative, read-out: SEPTTR 3DC 100 ppm

Structure (SMILES) | pest or weed control at 25 ppm [1] | pest or weed control at 100 ppm [2] | pest or weed control at 25 ppm [3] | pest or weed control at 100 ppm [4]
COc1ccc(Oc2ncc(F)c(N)n2)cc1 [Compound 573] | 26 to 50% | 51 to 75% | 0 to 25% | 0 to 25%
Nc1nc(OCc2ccc(Cl)c(Cl)c2)ncc1F [Compound 574] | 76 to 100% | 76 to 100% | 76 to 100% | 76 to 100%
CC(Oc1ncc(F)c(N)n1)c1cccc([N+](=O)[O-])c1 (stereo not shown) [Compound 576] | 26 to 50% | 76 to 100% | 26 to 50% | 76 to 100%
Cc1csc(COc2ncc(F)c(N)n2)c1 [Compound 577] | 76 to 100% | 76 to 100% | 76 to 100% | 76 to 100%
Nc1nc(OCc2cc3cccnc3s2)ncc1F [Compound 578] | 76 to 100% | 76 to 100% | 76 to 100% | 76 to 100%
Nc1nc(OCc2cccnc2Cl)ncc1F [Compound 580] | 51 to 75% | 76 to 100% | 0 to 25% | 51 to 75%
COc1cc(COc2ncc(F)c(N)n2)ccc1F [Compound 581] | 76 to 100% | 76 to 100% | 76 to 100% | 76 to 100%
Nc1nc(OCCNc2ccccc2)ncc1F [Compound 583] | 0 to 25% | 76 to 100% | 76 to 100% | 76 to 100%
CN(C)/C=N/c1nc(OC(=O)c2ccc(Cl)cc2)ncc1F [Compound 585] | 76 to 100% | 76 to 100% | 76 to 100% | 76 to 100%
COc1cccc(COc2ncc(F)c(N3CCOCC3)n2)c1 [Compound 586] | 0 to 25% | 0 to 25% | 0 to 25% | 0 to 25%
O=C(Nc1ccsc1)Nc1nc(OCc2ccc(F)cc2)ncc1F [Compound 587] | 0 to 25% | 0 to 25% | 26 to 50% | 76 to 100%
CNc1nc(OCc2ccc(OC)c(OC)c2)ncc1F [Compound 589] | 0 to 25% | 0 to 25% | 0 to 25% | 0 to 25%
COc1ccc(COc2ncc(F)c(N)n2)cc1F [Compound 590] | 76 to 100% | 76 to 100% | 76 to 100% | 76 to 100%
Cc1cc(C)cc(C(C)Oc2ncc(F)c(N)n2)c1 (stereo not shown) [Compound 592] | 76 to 100% | 76 to 100% | 76 to 100% | 76 to 100%
COc1cccc(COc2ncc(F)c(NOCc3ccccc3)n2)c1 [Compound 594] | 0 to 25% | 51 to 75% | 0 to 25% | 26 to 50%
Cn1ccc(COc2ncc(F)c(NC(=S)NCc3ccccc3F)n2)n1 [Compound 595] | 26 to 50% | 76 to 100% | 0 to 25% | 0 to 25%
Nc1nc(OCc2ccc(OC(F)(F)F)cc2)ncc1F [Compound 596] | 76 to 100% | 76 to 100% | 76 to 100% | 76 to 100%
Cc1cc(C(C)Oc2ncc(F)c(N)n2)ccc1Cl (stereo not shown) [Compound 597] | 76 to 100% | 76 to 100% | 76 to 100% | 76 to 100%
CC[Si](CC)(CC)Nc1nc(OCc2cccc(C#N)c2)ncc1F [Compound 599] | 51 to 75% | 76 to 100% | 76 to 100% | 76 to 100%
